54 molecules from the pKa sets of Baltruschat and Czodrowski (2020) can be followed below.

Molecules are shown by their SMILES.

Regarding `[O-]c1nc(C(F)(F)F)nc2nc[nH]c12`, the pKa (commonly the negative logarithm of the acid dissociation constant) (acidic group) was 11.2 and the pKa (basic group) stood at 5.1.
`[O-]c1ccc(Nc2ccc(O)cc2)cc1` came in with a pKa (acidic group) of 10.6.
For the setting “acidic group”, `CONC(=O)c1ccccc1` gave a pKa of 8.89.
`CC(=O)Nc1cccc2cc3ccccc3nc12` yielded a pKa (basic group) of 3.
`Cc1cccc(/N=N/c2ccc(N(C)C)cc2)c1` yielded a pKa (basic group) of 2.33.
For the setting “acidic group”, `CC(C)(O)C(=O)O` displayed a pKa of 4.04.
`CC(C)O` yielded a pKa (acidic group) of 16.1.
`Cc1csc(C(=O)O)c1` registered a pKa (acidic group) of 3.66.
Take `Nc1cnnc2ccccc12`: the pKa (basic group) was 6.84.
Still for that read-out and setting: with `CNCc1ccc(C)cc1` the figure was 9.93.
For the molecule `CC(C)CP(=O)(O)CC(C)C`, the pKa (acidic group) was found to be 3.25.
For the molecule `CSC(=S)NCC(=O)O`, the pKa (acidic group) stood at 3.19.
In turn, `O=[N+]([O-])c1ccc([O-])c(CN2CCOCCOCCOCCOCCOCC2)c1` displayed a pKa (basic group) of 9.59.
On the same count and under the same terms, with `C[C@H]([NH3+])C(=O)N[C@@H](Cc1c[nH]cn1)C(=O)[O-]` the figure was 6.76.
`NOCc1ccc(Cl)cc1` registered a pKa (basic group) of 4.22.
Same read-out and setting: the value for `Cc1c(C(C)C)c(=O)n(-c2ccccc2)n1C` was 2.4.
Take `Cc1ccc(C(=O)O)c(I)c1`: under “acidic group”, the pKa is 3.2.
Take `CC1NCCc2c1[nH]c1ccc([N+](=O)[O-])cc21` (centres undefined): where the note is “acidic group”, the pKa turned out to be 14.1.
Molecule `Nc1ncnc2c1cnn2-c1ccccc1` displayed a pKa (basic group) of 3.89.
Regarding `O=[N+]([O-])/C(=N/O)c1ccc(Cl)cc1`, where the note is “acidic group”, the pKa came to 6.6.
Molecule `O=[N+]([O-])c1cccc(C2NCCS2)c1` (centres undefined) showed a pKa (basic group) of 4.63.
As to `CN(C)Cc1ccccc1O`, the pKa runs as follows: (acidic group) 11; (basic group) 8.6.
Turning to `CN1CCC(=O)NC1=O`, the pKa (acidic group) came out at 11.9.
Regarding `CC(C)n1nnnc1N`, where the note is “basic group”, the pKa turned out to be 1.91.
Consider `O=C(O)/C=C/c1ccc(O)cc1`, for which the pKa (acidic group) worked out at 4.64.
Under “basic group”, `c1coc(CNc2ncnc3[nH]ncc23)c1` had a pKa of 4.01.
On the same count and under the same terms, the value for `COc1ccc2c(c1)CCN2` was 6.1; that for `CC(O)CN(CCN1CCOCC1)CC(C)O` (centres undefined) was 7.9.
For the molecule `Nc1ccc(-c2ncc(-c3ccc(Br)cc3)o2)cc1`, the pKa (basic group) was found to be 2.8.
Take `Cc1ccc(CN2CC(O[Si](C)(C)C)C2)cc1`: where the note is “basic group”, the pKa was 8.24.
On to `NCc1ccccc1[N+](=O)[O-]`, for which, where the note is “basic group”, the pKa is 8.59.
Where the note is “basic group”, `N/C(CC/C(N)=N/O)=N\O` registered a pKa of 5.97.
Molecule `CC(C)N[C@H](c1ccccc1)[C@H](O)c1ccccc1` had a pKa (basic group) of 11.8.
For the setting “acidic group”, `CC1CCC(=O)C1=O` (centres undefined) gave a pKa of 9.6.
Regarding `Nc1cc[nH+]c2c1ncn2CCOCP(=O)(O)O`, the pKa is 1.11 (acidic group) and 0.05 (basic group).
For the setting “basic group”, `NCc1cccnc1` showed a pKa of 8.33.
Still for that read-out and setting: the value for `CCN(CC)CCCC#N` was 9.29.
In turn, `Cc1n[nH]c2ncnc(N)c12` displayed a pKa (acidic group) of 11.1 and a pKa (basic group) of 4.61.
On to `N=C(N)N`, for which the pKa (basic group) was found to be 13.1.
For `O=C(Oc1ccc(Cl)cc1)C1c2ccccc2-c2ccccc21`, for the setting “acidic group”, the pKa was 10.3.
`Clc1c(Cl)c(Cl)c2[nH]nnc2c1Cl` displayed a pKa (acidic group) of 4.52.
With `O=[N+]([O-])c1ccc(/C=N/c2ncccn2)cc1`, the pKa (basic group) was 3.12.
In turn, `CC(C)COc1ccc(C(=O)O)cc1` displayed a pKa (acidic group) of 4.48.
In turn, `CCC#CC(=O)O` displayed a pKa (acidic group) of 2.6.
In the case of `CN(CC[NH3+])CC[NH+](C)C`, the pKa (basic group) was determined as 3.19.
`CCCCCCCCCCCCCCCCCc1c2ccccc2nc2ccccc12`: the pKa (basic group) was 5.5.
Where the note is “acidic group”, `NC1=[NH+][C@@H](CC(=O)O)C(=O)N1CCCC([NH3+])C(=O)O` (some centres undefined) had a pKa of 1.86.
Still for that read-out and setting: with `Cc1cccc(C(=O)O)c1Br` the figure was 2.9; with `C#CCCCCC(=O)O`, 4.58.
On to `Cc1cc2cccc(O)c2nc1C`, for which the pKa was 10.2 (acidic group) and 5.86 (basic group).
Turning to `Cc1cc([N+](=O)[O-])ccc1C(=O)O`, for the setting “acidic group”, the pKa worked out at 2.91.
In the case of `Nc1ccc[nH+]c1C(=O)O`, where the note is “acidic group”, the pKa is 1.33.
Under “basic group”, `CCC(O)CN(C)CCO` (centres undefined) gave a pKa of 8.7.
Molecule `CC(=O)CC(=O)Nc1cccc(C)c1` gave a pKa (acidic group) of 10.
